Laboratory results as given in patent US20110269799A1 (priority 2008, published 2011).
Where two headings read alike, the source gives them in different places. Marks after values point to notes of the source that are not given here. Each block holds one compound with its values, some of them ahead of it.

Assays:
[1] = system: patients with atrial fibrillation at risk of stroke; details: warfarin INR 2.0-3.0
Text: Median follow-up was 2.0 years and the primary outcome was stroke or systemic embolism.
Patients were recruited from 951 clinical centers in 44 countries. In brief, patients were eligible if they had atrial fibrillation documented on electrocardiogram at screening or within 6 months; and at least one of the following: prior stroke or transient ischemic attack; left ventricular ejection fraction less than 40%; New York Heart Association heart failure symptoms of Class 2 or greater within 6 months; age at least 75 years; or age at least 65 years with diabetes mellitus, hypertension or coronary artery disease.
The time in therapeutic range was calculated by the method of Rosendaal (Rosendaal F R, et al., A method to determine the optimal intensity of oral anticoagulant therapy, Thromb Haemost, 1993, 69:236-239), excluding INRs from the first week and after discontinuations. […] Concomitant use of aspirin (less than 100 mg/day) or other antiplatelet agents was allowed.
Liver function testing was performed monthly during the first year of follow-up.
The primary study outcome was stroke or systemic embolism. The primary safety outcome was major hemorrhage. Secondary outcomes were stroke, systemic embolism and death. Other outcomes were myocardial infarction, pulmonary embolism, transient ischemic attacks, and hospitalizations. The primary net benefit-risk outcome was the composite of stroke, systemic embolism, pulmonary embolism, myocardial infarction, death or major hemorrhage. Stroke was defined as sudden onset of focal neurological deficit consistent with the territory of a major cerebral artery and categorized as ischemic, hemorrhagic or unspecified. Hemorrhagic transformation of ischemic stroke was not considered as hemorrhagic stroke. Intracranial hemorrhage included hemorrhagic stroke and sub-dural or sub-arachnoid hemorrhage. Systemic embolism was an acute vascular occlusion of an extremity or organ documented by imaging, surgery or autopsy. Major bleeding was defined as a reduction in hemoglobin level of at least […] or transfusion of at least 2 units of blood or symptomatic bleeding in a critical area or organ. Life-threatening bleeding was a subset of major bleeding that included fatal bleeding, symptomatic intracranial bleeding, bleeding with hemoglobin decrease of more than […] or requiring transfusion of more than 4 units of blood or requiring inotropic agents or necessitating surgery. All other bleeding was considered minor.
All primary and secondary outcome events were blindly and doubly adjudicated. An international team of adjudicators reviewed documents in local languages after blinding; or documents were translated by a independent group and blinded centrally. All transient ischemic attacks were reviewed to ensure that strokes had not been missed. To detect possible unreported events, symptom questionnaires were regularly administered to patients, and adverse events and hospitalization reports were scrutinized for unreported primary or secondary outcomes.
If maximum of the two p-values was greater than 0.025, the minimum of the two p-values must be less than 0.0125, one-sided, to claim statistical significance. All analyses were based on intention-to-treat.

AF patients [2] = details: SPORTIF III, cited from earlier work
AF patients [3] = details: SPORTIF V, cited from earlier work
AF patients [4] = details: ACTIVE W; cited from earlier work
[5] = system: patients who have nonvalvular atrial fibrillation; details: meta-analysis; cited from earlier work
[6] = system: patients with chronic atrial fibrillation; assay: PETRO phase 2 12-week dose finding study, dabigatran etexilate alone or with aspirin vs. warfarin; format: in vivo, human
Text: Primary endpoints were bleeding events and changes in D-dimer. […] Minor bleeding was dose related.

[7] = system: cytochrome P-450 drug metabolizing enzymes; assay: Cytochrome P-450 metabolism, induction and inhibition; format: in vitro ADME
[8] = system: patients with atrial fibrillation

SMILES: CC(=O)CC(c1ccccc1)c1c(O)c2ccccc2oc1=O (racemic) [Warfarin, 3-(α-acetonylbenzyl)-4-hydroxycoumarin]
ALT or AST > 3xULN [1]: (2.1) %
ALT or AST > 3xULN with concurrent bilirubin > 2xULN [1]: (0.4) %
Adverse Event: Arthralgia [1]: (5.5) %
Adverse Event: Atrial fibrillation [1]: (5.4) %
Adverse Event: Back pain [1]: (5.5) %
Adverse Event: Chest pain [1]: (5.7) %
Adverse Event: Cough [1]: (5.8) %
Adverse Event: Diarrhea [1]: (5.5) %
Adverse Event: Dizziness [1]: (9.3) %
Adverse Event: Dyspepsia [1]: (1.4) %
Adverse Event: Dyspnoea [1]: (9.2) %
Adverse Event: Fatigue [1]: (5.9) %
Adverse Event: Nasopharyngitis [1]: (5.5) %
Adverse Event: Peripheral edema [1]: (7.6) %
Adverse Event: Upper respiratory tract infection [1]: (5.0) %
Adverse Event: Urinary tract infection [1]: (5.3) %
Major Bleeding, Life threatening, Rate [1]: 1.80 /100 Person Years
Major Bleeding, Other Major, Rate [1]: 1.80 /100 Person Years
Pulmonary embolism, Rate [1]: 0.09 /100 Person Years
Rate of discontinuation at 2.5 years [1]: 19%
Rate of hemorrhagic stroke [1]: 0.38 % per year
Rate of myocardial infarction [1]: 0.54 % per year
Rate of primary outcome, stroke or systemic embolism [1]: 1.70 % per year
Reason for discontinuation: Gastrointestinal bleeding [1]: (0.9) %
Reason for discontinuation: Gastrointestinal disorders (including pain, vomiting and diarrhea) [1]: (0.8) %
Reason for discontinuation: Outcome event [1]: (2.2) %
Reason for discontinuation: Patient decision [1]: (6.2) %
Reason for discontinuation: SAE [1]: (1.6) %
Stroke, systemic embolism, pulmonary embolism, myocardial infarction death or major bleed (net benefit), Rate [1]: 7.99 /100 Person Years
Study Drug Discontinuation at one year [1]: (10) %
Study Drug Discontinuation at two years [1]: (19) %
hepatobiliary disorders (AE) [1]: (2.2) %
hepatobiliary disorders (SAE) [1]: (0.4) %
Study Drug Discontinuation at one year ([1]; listed as warfarin): 10%
Myocardial Infarction (AF patients [2]): 0.6% (warfarin)
Stroke and systemic embolism (per 100 patient years) (AF patients [2]; ximelagatran 36 mg b.i.d.): 2.3% (warfarin)
Myocardial Infarction (AF patients [3]): 1.4% (warfarin)
Stroke and systemic embolism (per 100 patient years) (AF patients [3]; ximelagatran 36 mg b.i.d.): 1.2% (warfarin)
Myocardial Infarction (AF patients [4]): 0.6% (warfarin)
Stroke and systemic embolism (per 100 patient years) (AF patients [4]): 1.5% (warfarin)
Reduction of the risk of stroke compared to control [5]: 64%

Major bleeding events ([6]; 300 mg b.i.d. plus ASA groups, 12 weeks): 6%
Minor bleeding ([6]; 50, 150, 300 mg b.i.d.): dose related
Elevated transaminases >3x upper limit of normal (ULN) ([6]; all dabigatran etexilate-treated patients (432)): 0.9%
Major Bleeds, of these without aspirin, rate ([8]; 150 mg b.i.d.): 3.2 % per year
Major Bleeds, rate ([8]; 150 mg b.i.d.): 4.2 % per year
Major Bleeds, with aspirin, rate ([8]; 150 mg b.i.d.): 8.7 % per year
Major Bleeds, of these without aspirin, rate ([8]; 150 mg q.d.): 6.5 % per year
Major Bleeds, rate ([8]; 150 mg q.d.): 5.1 % per year
Bleeding events ([8]; 300 mg b.i.d.): more than 12 per 100 years
Major Bleeds, of these without aspirin, rate ([8]; 300 mg b.i.d.): 6.3 % per year
Major Bleeds, rate ([8]; 300 mg b.i.d.): 12.2 % per year
Major Bleeds, with aspirin, rate ([8]; 300 mg b.i.d.): 32.7 % per year
Major Bleeds, of these without aspirin, rate ([8]; 300 mg q.d.): 2.1 % per year
Major Bleeds, rate ([8]; 300 mg q.d.): 2.5 % per year
Major Bleeds, with aspirin, rate ([8]; 300 mg q.d.): 3.6 % per year
Major bleeding events (per 100 patient years) ([8]; PETRO-Ex, 150 mg b.i.d., without concomitant aspirin): 3.2%*
LFT abnormalities > 3 xULN (per 100 patient years) ([8]; PETRO-Ex, all doses): 1.7%
Major Bleeds, of these without aspirin, rate ([8]; Total, all doses): 3.2 % per year
Major Bleeds, rate ([8]; Total, all doses): 4.2 % per year
Major Bleeds, with aspirin, rate ([8]; Total, all doses): 8.5 % per year
SMILES: CCCCCCOC(=O)NC(=N)c1ccc(NCc2nc3cc(C(=O)N(CCC(=O)OCC)c4ccccn4)ccc3n2C)cc1 [Dabigatran etexilate, 1-methyl-2-[N-[4-(N-n-hexyloxycarbonylamidino)phenyl]aminomethyl]benzimidazol-5-ylcarboxylic acid-N-(2-pyridyl)-N-(2-ethoxycarbonylethyl)amides]
Metabolism by, induction or inhibition of cytochrome P-450 enzymes [7]: not metabolized by and does not induce or inhibit cytochrome P-450 drug metabolizing enzymes
Adverse Events leading to premature discontinuation, rate ([8]; 50 mg b.i.d.): 21.3 % per year
Thromboembolic events ([8]; 50 mg b.i.d.): more than 12 events per 100 years
ALT or AST > 2xULN, rate ([8]; 150 mg b.i.d.): 3.1 % per year
ALT or AST > 3xULN and Bili > 2xULN within 30 days, rate ([8]; 150 mg b.i.d.): 0.4 % per year
ALT or AST > 3xULN, rate ([8]; 150 mg b.i.d.): 1.9 % per year
ALT or AST > 5xULN, rate ([8]; 150 mg b.i.d.): 1.0 % per year
Adverse Events leading to premature discontinuation, rate ([8]; 150 mg b.i.d.): 9.8 % per year
Stroke and Systemic Thromboembolism, rate ([8]; 150 mg b.i.d.): 1.0 % per year
ALT or AST > 2xULN, rate ([8]; 150 mg q.d.): 3.4 % per year
Adverse Events leading to premature discontinuation, rate ([8]; 150 mg q.d.): 13.7 % per year
Thromboembolic events ([8]; 150 mg q.d., per 100 years): about 5 events
ALT or AST > 2xULN, rate ([8]; 300 mg b.i.d.): 4.9 % per year
ALT or AST > 3xULN, rate ([8]; 300 mg b.i.d.): 2.4 % per year
ALT or AST > 5xULN, rate ([8]; 300 mg b.i.d.): 1.2 % per year
Adverse Events leading to premature discontinuation, rate ([8]; 300 mg b.i.d.): 25.6 % per year
Thromboembolic events ([8]; 300 mg b.i.d.): about 1 event per 100 years
ALT or AST > 2xULN, rate ([8]; 300 mg q.d.): 1.5 % per year
ALT or AST > 3xULN and Bili > 2xULN within 30 days, rate ([8]; 300 mg q.d.): 0.5 % per year
ALT or AST > 3xULN, rate ([8]; 300 mg q.d.): 1.5 % per year
ALT or AST > 5xULN, rate ([8]; 300 mg q.d.): 1.5 % per year
Adverse Events leading to premature discontinuation, rate ([8]; 300 mg q.d.): 9.6 % per year
Thromboembolic events ([8]; 300 mg q.d., per 100 years): more than 2 events
ALT or AST > 2xULN, rate ([8]; Total, all doses): 2.9 % per year
ALT or AST > 3xULN and Bili > 2xULN within 30 days, rate ([8]; Total, all doses): 0.4 % per year
ALT or AST > 3xULN, rate ([8]; Total, all doses): 1.7 % per year
ALT or AST > 5xULN, rate ([8]; Total, all doses): 1.1 % per year
Adverse Events leading to premature discontinuation, rate ([8]; Total, all doses): 11.5 % per year
